# From patent US11331375B2, “Compositions and methods for regulating leukocyte adhesion” (University of Virginia Patent Foundation, priority 2015, dated 2022)
# Columns and labels:
# VCAM1 = VCAM1 expression in isolated mesenteric venules; assay type: cell-based, mouse; conditions: EC Panx1 KO venules, TNFα 50 ng/mL, exogenous ATP
# Experimental: Male VECadER^T2+/Panx1^fl/fl mice (Tamoxifen or Peanut oil injected) were euthanized by CO2 asphyxiation and subsequent cervical dislocation. Prior to tissue harvesting, fixation was performed by perfusing room temperature 4% paraformaldehyde (PFA) made in PBS through the heart. The mesentery was immediately excised and 2nd order venules were dissected free of surrounding fat and connective tissue and place in 4% PFA for 30 minutes before transfer to 70% ethanol for paraffin embedding. Paraffin sections (4-5 μm in thickness) were de-paraffinized and processed for immunocytochemistry as previously described^10. […]
# Following stimulation with TNFα (in vitro: 10 ng/mL; ex vivo: 50 ng/mL), confluent endothelial cell monolayers or isolated mesenteric venules were homogenized in ice cold Triton extraction buffer (50 mM Tris-HCL, 150 mM NaCl , 5 mM EDTA, 1% deoxycholate, 1% NP-40 and 1% Triton-X100 in phosphate buffered saline and pH adjusted to 7.4) containing protease and phosphatase inhibitors. […] Protein concentration was quantified using the BCA method. […] Membranes were then washed and incubated with LiCOR secondary antibodies (1:10,000) and visualized and quantitated using LiCOR Odyssey. […] Data are expressed as mean±SEM (n=3 independent experiments).
# HUVEC = experiment: In vitro ATP release assay (luciferin:luciferase), HUVEC; assay type: cell-based, human; conditions: HUVEC
# Experimental: (§1) In vitro Human arterial and venous ECs were seeded in 24-well plates pre-coated with 0.2% gelatin and grown to confluency. On the day of experiment, the media was removed from each well and cells were carefully washed twice with warm serum free basal EC medium supplemented with 1% BSA. Cells were then incubated in 300 μL of fresh basal EC medium supplemented with 1% BSA for 30 minutes at 37° C. to allow degradation of extracellular ATP released due to mechanical stimulation during washes. Endogenous ecto-nucleotidases were inhibited by incubating EC monolayers with 300 μM ARL 67156 (Tocris) for 30 minutes at 37° C. Cells were then stimulated with recombinant human TNFα (R&D Systems). For dose response experiments, ECs were incubated with 0.1, 1, 5, 10, 50, or 100 ng/mL recombinant TNFα for 30 minutes at 37° C. For time-course experiments, ECs were stimulated with 10 ng/mL recombinant TNFα for different time points up to 1 hour. In experiments where pharmacological inhibitors were employed, ECs were incubated with antagonists in parallel with ARL 67156 for 30 minutes. To inhibit TNFR1, ECs were incubated with the peptide antagonist of the receptor WP9QY (10 μM; Anaspec). […] Cx hemichannels were inhibited with lanthanum (La^3+; 100 μM; Sigma) and Panx1 channels were blocked with carbenoxolone (CBX; 50 μM; Sigma) and the inhibitory peptide ^10panx1 (200 μM; Genscript). […] The role of caspase activation was assessed by inhibition with the pan-caspase blocker Q-VD-OPh (100 μM; Sigma). Following stimulation with TNFα or vehicle, 150 μL of the cell supernatant was collected and immediately placed into pre-chilled 1.5 mL Eppendorf tubes on ice. All samples were centrifuged at 10,000×g for 5 minutes and 50 μL of each sample was transferred to a white, opaque 96-well plate. Using a FluoStar Omega luminometer, 50 μL of luciferin:luciferase reagent (ATP bioluminescence assay kit HSII; Roche) was injected into each well and luminescence was recorded following a 5s orbital mix. ATP concentration in each sample was calculated from a standard curve for all experiments. Data are presented as a % change in ATP release from baseline (i.e. unstimulated cells) and expressed as mean±SEM (n=5 independent experiments with triplicate measurements).
# HSaVEC = experiment: In vitro ATP release assay (luciferin:luciferase), HSaVEC; assay type: cell-based, human; conditions: HSaVEC
# Experimental: as §1
# Panx1 = experiment: Cell surface biotinylation after BFA, Panx1; assay type: cell-based, human; conditions: HUVEC and HSaVEC; BFA 5 μg/mL, 5 hour
# Experimental: (§2) Cell surface biotinylation was performed as described previously^15. To deplete Cx43 hemichannels from the EC plasma membrane, venous and arterial ECs were grown to confluency in 6-well plates (Western blotting) or 24-well plates (ATP release) and treated with the vesicular exocytosis inhibitor brefeldin A (BFA; 5 μg/mL) for 5 hours at 37° C. Cells were washed once with cold 1× PBS and incubated with cold DMEM (without FBS) and 50 μM CBX at 4° C. for 30 minutes. CBX was added to prevent biotin from passing through Panx1 channels, which may label intracellular proteins. Cells were washed with PBS and incubated at 4° C. for 1 hour in cold PBS (1.5 mL/dish) containing EZ-link-sulfo-NHS-LC-biotin (1 mg/mL) and CBX (50 μM). The cells were washed again with PBS and lysed in PBS-T (PBS+0.5-1% Triton-X 100) containing protease inhibitors. Total protein was quantified using the BCA assay and equal amounts of protein were incubated with Streptavidin-agarose beads for 2 hours at 4° C. to pull down biotinylated (cell surface) proteins. Beads were then washed 5 times with 1× PBS-T, pelleted by centrifugation and proteins eluted by incubation with 5x sample buffer. Eluted proteins were subjected to SDS-PAGE and Western blotting for detection of Cx43 and Panx1.
# Cx43 hemichannels = experiment: Cell surface biotinylation after BFA, Cx43; assay type: cell-based, human; conditions: HUVEC and HSaVEC; BFA 5 μg/mL, 5 hour
# Experimental: as §2
# [1] = BFA 5 μg/mL for 5 hours, TNFα 10 ng/mL 30 min
Structure (SMILES),VCAM1 upregulation in Panx1 KO mice venules (VCAM1),TNFα-induced ATP release after Cx hemichannel depletion (HUVEC; [1]),"effect of inhibitor on TNFα-induced ATP release (HUVEC; antagonist 30 min, WP9QY 10 μM, La3+ 100 μM, BFA 5 μg/mL, RuR 20 μM, PP2/PP3 10 μM, Q-VD-OPh 100 μM)",TNFα-induced ATP release after Cx hemichannel depletion (HSaVEC; [1]),"effect of inhibitor on TNFα-induced ATP release (HSaVEC; antagonist 30 min, WP9QY 10 μM, BFA 5 μg/mL, RuR 20 μM, PP2/PP3 10 μM)",expression of Panx1 at the EC surface (Panx1),expression of Cx43 at the EC surface (Cx43 hemichannels)
"Nc1ncnc2c1ncn2[C@@H]1O[C@H](COP(=O)(O)OP(=O)(O)OP(=O)(O)O)[C@@H](O)[C@H]1O [ATP, adenosine 5′ triphosphate]",rescued,–,–,–,–,–,–
"C[C@H]1CCC/C=C/[C@@H]2C[C@H](O)C[C@H]2[C@H](O)/C=C/C(=O)O1 [BFA, brefeldin A]",–,unaffected,ruled out the involvement,unaffected,ruled out the involvement,without significantly altering,decreased
